Data: patent US4451485A, “Treatment of cardio-vascular diseases with 3-(2,2,2-trimethylhydrazinium) propionate dihydrate” (Institu Organicheskogo Sinteza Akademii Nauk Latviiskoi SSR, priority 1981, dated 1984)

Columns and labels:
[1] = in the organism; cited from earlier work
[2] = Variation of arrhythmogenic and lethal doses of CaCl2 in mice; format: in vivo, white mice; conditions: for Effect on arrhythmogenic and lethal doses of calcium chloride: single intraperitoneal administration
Protocol: Thus, the effect of the preparation according to the present invention has been studied relative to the variation of arrhythmogenic and lethal doses of calcium chloride. An experiment was carried out on white mice of both sexes weighing 19-28 g which were narcotized by urethane and an ECG was remetered in transthoracic lead. A 2% solution of calcium chloride was administered to the test animals into the tail vein at a constant rate (0.1 ml for 15 seconds). The average dose of calcium chloride causing the appearance of arrhythmia and heart arrest was determined. In the test groups, the studied compounds were administered 45, 60, 120, 180 and 240 minutes before the beginning of administration of calcium chloride (Table 1).
Variation of arrthythmogenic and lethal doses of CaCl2
with time after administration of the studied
pharmaceutical compositions in experiments on mice.

in vivo = assay: in vivo; parameters: species or system white mice; conditions: mouse, in vivo; for LD50: white mice, intravenous (Table 2)
[3] = Threshold of electric fibrillation of auricles and ventricles in cats; format: in vivo; conditions: for ED50: Felis catus, read-out: ED50, electric irritation of cat's heart; for Effect on fibrillation threshold relative to the composition of the invention: novocainamide 40-55 mg/kg, quinidine and lidocain lower doses
Protocol: Furthermore, the preparation according to the present invention was tested for specific antiarrhythmic and antianginal effects. […] The effect of the novel pharmaceutical composition according to the present invention was studied on cats weighing 2.9-3.6 kg. The preparation was used as a 10% aqueous solution containing 3-(2,2,2-trimethylhydrazinium)propionate for the determination of the threshold value of electric fibrillation of auricles and ventricles. Under artificial respiration after opening of the thorax and pericardium, needle-like electrodes were applied to the right auricula and apex of the left ventricle. The irritation was effected by square pulses of 1 m.s., 15 st/s.
(§1) For the comparison of preparations, as the criterion of the range of therapeutic effect, there was used the ratio of the half-lethal dose to the half-effective dose (LD50 /ED50) which was referred to as the antiarrhythmic index. […] The comparative study of the antiarrhythmic activity of pharmaceutical preparations using an acotine model of arrhythmia was effected in experiments on white rats weighing 190-240 g. The test preparations were administered intraperitoneally 10-40 minutes before administration of aconitine.

[4] = Aconitine model of arrhythmia in white rats; format: in vivo; conditions: for ED50: Rattus norvegicus, ip, read-out: ED50, aconitine arrhythmia in rats; for Antiarrhythmic index LD50/ED50, aconitine arrhythmia in rats: rat, in vivo
Protocol: as §1

[5] = Strophanthin arrhythmia in guinea pigs (450 μg/kg); format: in vivo; conditions: for ED50: Cavia porcellus, read-out: ED50, Strophanthin arrhythmia in guinea pigs
Protocol: As the third model of arrhythmia, there was used strophanthin arrhythmia in guinea pigs. […] Against the background of arrhythmia the test preparations were administered intravenously.

[6] = Coronary circulation and hemodynamics in narcotized cats; format: in vivo
Protocol: In acute experiments on narcotized cats with a mass of from 2.9 to 4.1 kg under artificial respiration, arterial pressure was recorded in the common carotide artery, central venous pressure in the right auricle, volume rate of blood flow in the ascending aortic arch and volume rate of the coronary blood flow. At the same time, there was recorded the content of oxyhemoglobin in venous coronary blood.

[7] = 3 mg/kg intraperitoneal, 45 minutes
[8] = 3 mg/kg intraperitoneal, 60 minutes
[9] = 3 mg/kg intraperitoneal, 120 minutes
[10] = 10 mg/kg intraperitoneal, 60 minutes
[11] = 10 mg/kg intraperitoneal, 120 minutes
[12] = 10 mg/kg intraperitoneal, 180 minutes
[13] = 30 mg/kg intraperitoneal, 60 minutes
[14] = 30 mg/kg intraperitoneal, 120 minutes

C[N+](C)(C)CCCC(=O)[O-] [γ-butyrobetain]
Metabolism into carnitine [1]: rapidly metabolized

C=C[C@H]1C[N@@]2CC[C@H]1C[C@@H]2[C@@H](O)c1ccnc2ccc(OC)cc12 [Quinidine]
Arrhythmogenic dose of CaCl2 [2, 7]: 128.9 mg/kg | Lethal dose of CaCl2 [2, 7]: 147.7 mg/kg | Arrhythmogenic dose of CaCl2 [2, 8]: 104.5 mg/kg | Lethal dose of CaCl2 [2, 8]: 117.8 mg/kg | Arrhythmogenic dose of CaCl2 [2, 9]: 87.47 mg/kg | Lethal dose of CaCl2 [2, 9]: 103.65 mg/kg | Arrhythmogenic dose of CaCl2 ([2]; 10 mg/kg intraperitoneal, 45 minutes before CaCl2, control 85): 120.84 mg/kg | Lethal dose of CaCl2 ([2]; 10 mg/kg intraperitoneal, 45 minutes before CaCl2, control 100.9): 138.54 mg/kg | Arrhythmogenic dose of CaCl2 [2, 10]: 119.48 mg/kg | Lethal dose of CaCl2 [2, 10]: 126.2 mg/kg | Arrhythmogenic dose of CaCl2 [2, 11]: 94.5 mg/kg | Lethal dose of CaCl2 [2, 11]: 117.6 mg/kg | Arrhythmogenic dose of CaCl2 [2, 12]: 88.7 mg/kg | Lethal dose of CaCl2 [2, 12]: 115.8 mg/kg | Effect on arrhythmogenic and lethal doses of calcium chloride [2]: more pronounced increase of the arrhythmogenic dose of calcium chloride | Toxicity relative to the composition of the invention (in vivo): substantially higher toxicity | LD50 (in vivo): 68 mg/kg | ED50 ([3]; intravenous): 2.6 ± 0.5 mg/kg | Antiarrhythmic index LD50/ED50, electric irritation of cat's heart ([3]; intravenous): 26 | Effect on fibrillation threshold relative to the composition of the invention [3]: exerting their effect at lower doses | ED50 [4]: 4.3 ± 0.6 mg/kg | Antiarrhythmic index LD50/ED50, aconitine arrhythmia in rats [4]: 16 | ED50 ([5]; intravenous): 2.3 ± 0.4 mg/kg | Antiarrhythmic index LD50/ED50, Strophanthin arrhythmia in guinea pigs ([5]; guinea pig, in vivo): 30 | Duration for which Strophanthin-induced arrhythmia is cut short / ECG improved ([5]; intravenous): 0.5 to 3 min | Number of animals (experiments) with effect on arrhythmia ([5]; intravenous): 4 out of 8

CCOC(=O)COc1ccc2c(C)c(CCN(CC)CC)c(=O)oc2c1 [Carbocromene, reference compound]
Increase duration ([6]; 0.5 mg/kg): 35 min | Volume rate, percent of increase ([6]; 0.5 mg/kg): 30% | Change of heart output ([6]; 2 mg/kg): +5 - 15% | Increase duration ([6]; 2 mg/kg): 50 min | Volume rate, percent of increase ([6]; 2 mg/kg): 45% | Change of arterial pressure ([6]; 5 mg/kg): 0 - +7% | Change of central venous pressure ([6]; 5 mg/kg): 5 - 10% | Change of heart output ([6]; 5 mg/kg): +5 - 15% | Increase duration ([6]; 5 mg/kg): 70 min | Volume rate, percent of increase ([6]; 5 mg/kg): 55% | Saturation of the venous blood of coronary sinus with oxygen ([6]; in vivo): lastingly increase saturation of the venous blood of coronary sinus with oxygen

CCN(CC)CC(=O)Nc1c(C)cccc1C [Lidocain]
ED50 ([5]; iv): 3.8 ± 0.5 mg/kg | Duration for which Strophanthin-induced arrhythmia is cut short / ECG improved ([5]; intravenous): 0.5 to 3 min | Number of animals (experiments) with effect on arrhythmia ([5]; intravenous): 4 out of 7

CCN(CC)CCNC(=O)c1ccc(N)cc1 [Novocainamide]
Arrhythmogenic dose of CaCl2 [2, 10]: 114.16 mg/kg | Lethal dose of CaCl2 [2, 10]: 120.8 mg/kg | Arrhythmogenic dose of CaCl2 [2, 11]: 86.85 mg/kg | Lethal dose of CaCl2 [2, 11]: 104.5 mg/kg | Arrhythmogenic dose of CaCl2 [2, 13]: 125.16 mg/kg | Lethal dose of CaCl2 [2, 13]: 143 mg/kg | Arrhythmogenic dose of CaCl2 [2, 14]: 93.16 mg/kg | Lethal dose of CaCl2 [2, 14]: 114.9 mg/kg | Effect on arrhythmogenic and lethal doses of calcium chloride [2]: more pronounced increase of the arrhythmogenic dose of calcium chloride | LD50 (in vivo): 112 mg/kg | ED50 ([3]; iv): 46 ± 6.3 mg/kg | Antiarrhythmic index LD50/ED50, electric irritation of cat's heart ([3]; intravenous): 2 | Antiarrhythmic index LD50/ED50, electric irritation of cat's heart ([3]; intravenous, listed as novocainamide): 2.3 | Effect on fibrillation threshold relative to the composition of the invention [3]: the same effect | ED50 [4]: 45 ± 5 mg/kg | Antiarrhythmic index LD50/ED50, aconitine arrhythmia in rats [4]: 2.5 | ED50 ([5]; intravenous): 55 ± 7.3 mg/kg | Duration for which Strophanthin-induced arrhythmia is cut short / ECG improved ([5]; intravenous): 5 to 20 min
